Data: US20250195521A1 (Revolution Medicines, Inc., priority 2020, published 2025)
Values joined by “and” are separate entries in the source; they are usually repeats but may differ in a detail not shown here. Equal entries are not always repeated. Where two headings read alike, the source gives them in different places.

Legend:
NRAS G12C = NRAS G12C (Homo sapiens (Human), UniProt P01111+P62937, G12C); experiment: Ras-Raf disruption/FRET/MOA assay (BRAF RBD, Cyclophilin A); type: biochemical; details: read-out: NRAS G12C FRET data IC50
NRAS G12C, sequence (P01111 whole entry G12C): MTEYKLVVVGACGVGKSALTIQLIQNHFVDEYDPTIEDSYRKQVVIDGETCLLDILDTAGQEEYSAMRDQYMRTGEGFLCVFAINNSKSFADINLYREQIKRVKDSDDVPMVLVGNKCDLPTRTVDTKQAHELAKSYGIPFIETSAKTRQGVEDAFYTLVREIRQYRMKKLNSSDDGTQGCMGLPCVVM
NRAS G12C, sequence (P62937 whole entry): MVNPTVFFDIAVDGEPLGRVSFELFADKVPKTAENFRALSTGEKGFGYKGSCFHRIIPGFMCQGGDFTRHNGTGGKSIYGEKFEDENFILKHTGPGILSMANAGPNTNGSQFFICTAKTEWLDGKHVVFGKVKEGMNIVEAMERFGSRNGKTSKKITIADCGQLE
How it was run: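 TR-FRET readout: anti-His Eu-W1024 (10 nM) and anti-GST allophycocyanin (50 nM) added after 3 h, 25° C compound incubation, then 1.5 h more. Decrease in FRET ratio versus DMSO wells marks Ras:RAF disruption; IC50 reported.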

KRAS G12V = KRAS G12V (Homo sapiens (Human), UniProt P01116+P62937, G12V); experiment: as above; type: biochemical; details: read-out: KRAS G12V FRET IC50
KRAS G12V, sequence (P01116 other isoform, or with tags, fused parts or gaps G12V): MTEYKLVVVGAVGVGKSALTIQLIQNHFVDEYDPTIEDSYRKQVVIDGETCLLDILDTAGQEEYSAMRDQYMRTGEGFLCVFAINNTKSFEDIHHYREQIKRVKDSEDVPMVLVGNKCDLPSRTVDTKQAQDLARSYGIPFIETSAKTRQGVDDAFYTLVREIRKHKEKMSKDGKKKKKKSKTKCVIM
KRAS G12V, sequence (P62937 whole entry): as the sequence (P62937 whole entry) above
How it was run: (§1)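 TR-FRET read after 1.5 h with 10 nM anti-His Eu-W1024 and 50 nM anti-GST APC, following 3 h at 25 °C of GMPPNP-loaded His6-Ras (12.5 nM), GST-BRAF RBD (50 nM) and Cyclophilin A (25 μM) with compound from 30 μM final, 10 points, 3-fold. IC50 reported; pH 7.3 HEPES, 100 mM NaCl.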

KRAS WT = KRAS WT (Homo sapiens (Human), UniProt P01116+P62937); experiment: as above; type: biochemical; details: read-out: KRAS WT FRET data IC50
KRAS WT, sequence (P01116 other isoform, or with tags, fused parts or gaps): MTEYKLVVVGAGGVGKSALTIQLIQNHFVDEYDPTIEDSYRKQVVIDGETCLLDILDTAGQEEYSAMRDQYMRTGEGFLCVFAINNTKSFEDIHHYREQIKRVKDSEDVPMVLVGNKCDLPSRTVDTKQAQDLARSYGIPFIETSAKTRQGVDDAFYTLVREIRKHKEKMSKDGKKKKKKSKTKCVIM
KRAS WT, sequence (P62937 whole entry): as the sequence (P62937 whole entry) above
How it was run: as §1

KRAS G12S = KRAS G12S (Homo sapiens (Human), UniProt P01116+P62937, G12S); experiment: as above; type: biochemical; details: read-out: KRAS G12S FRET IC50
KRAS G12S, sequence (P01116 other isoform, or with tags, fused parts or gaps G12S): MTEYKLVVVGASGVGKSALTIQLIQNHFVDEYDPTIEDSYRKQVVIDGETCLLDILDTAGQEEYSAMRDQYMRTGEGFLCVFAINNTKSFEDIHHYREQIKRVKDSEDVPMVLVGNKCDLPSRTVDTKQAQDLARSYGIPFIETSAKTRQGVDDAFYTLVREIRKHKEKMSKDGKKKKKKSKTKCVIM
KRAS G12S, sequence (P62937 whole entry): as the sequence (P62937 whole entry) above
How it was run: as §1

KRAS G13D = KRAS G13D (Homo sapiens (Human), UniProt P01116+P62937, G13D); experiment: as above; type: biochemical; details: read-out: KRAS G13D FRET data IC50
KRAS G13D, sequence (P01116 other isoform, or with tags, fused parts or gaps G13D): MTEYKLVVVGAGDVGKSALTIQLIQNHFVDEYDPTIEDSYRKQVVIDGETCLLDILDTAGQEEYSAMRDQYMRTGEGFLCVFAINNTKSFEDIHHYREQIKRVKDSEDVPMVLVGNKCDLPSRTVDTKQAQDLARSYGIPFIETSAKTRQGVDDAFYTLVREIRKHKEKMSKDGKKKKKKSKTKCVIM
KRAS G13D, sequence (P62937 whole entry): as the sequence (P62937 whole entry) above
How it was run: as §1

KRAS G12C = KRAS G12C (Homo sapiens (Human), UniProt P01116+P62937, G12C); experiment: as above; type: biochemical; details: read-out: KRAS G12C FRET IC50
KRAS G12C, sequence (P01116-2 other isoform, or with tags, fused parts or gaps G12C): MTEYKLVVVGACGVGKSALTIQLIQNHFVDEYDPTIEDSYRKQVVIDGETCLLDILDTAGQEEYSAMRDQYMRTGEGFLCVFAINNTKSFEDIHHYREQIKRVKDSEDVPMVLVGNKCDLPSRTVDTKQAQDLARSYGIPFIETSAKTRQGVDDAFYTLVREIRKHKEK
KRAS G12C, sequence (P62937 whole entry): as the sequence (P62937 whole entry) above
How it was run: as §1

KRAS G13C = KRAS G13C (Homo sapiens (Human), UniProt P01116+P62937, G13C); experiment: as above; type: biochemical; details: read-out: KRAS G13C FRET IC50
KRAS G13C, sequence (P01116 other isoform, or with tags, fused parts or gaps G13C): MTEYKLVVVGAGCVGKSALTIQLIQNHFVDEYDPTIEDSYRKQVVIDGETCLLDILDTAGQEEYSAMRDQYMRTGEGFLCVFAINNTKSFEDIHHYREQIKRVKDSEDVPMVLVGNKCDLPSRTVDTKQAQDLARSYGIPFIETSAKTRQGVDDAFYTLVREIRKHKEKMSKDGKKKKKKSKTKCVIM
KRAS G13C, sequence (P62937 whole entry): as the sequence (P62937 whole entry) above
How it was run: as §1

KRAS G12D = KRAS G12D (Homo sapiens (Human), UniProt P01116+P62937, G12D); experiment: as above; type: biochemical; details: read-out: KRAS G12D FRET IC50
KRAS G12D, sequence (P01116 other isoform, or with tags, fused parts or gaps G12D): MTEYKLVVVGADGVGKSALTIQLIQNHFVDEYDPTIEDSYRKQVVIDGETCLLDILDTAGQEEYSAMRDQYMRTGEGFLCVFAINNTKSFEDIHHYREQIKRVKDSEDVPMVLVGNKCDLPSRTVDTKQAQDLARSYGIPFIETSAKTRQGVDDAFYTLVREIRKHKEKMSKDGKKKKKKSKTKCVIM
KRAS G12D, sequence (P62937 whole entry): as the sequence (P62937 whole entry) above
How it was run: as §1

NCI-H358 (K-Ras G12C) = experiment: CellTiter-Glo cell viability assay, NCI-H358; type: cell-based, human; details: Homo sapiens, NCI-H358, 120 h
How it was run: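 NCI-H358 (K-Ras G12C) cells treated with compound dispensed directly into plates. CellTiter-Glo luminescence read on day 5 after ~30 min equilibration to room temperature. Signal normalised to DMSO average ×100, then fitted with a four-parameter logistic model.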

[1] = system: Capan-1 cells (K-Ras G12V); experiment: CellTiter-Glo cell viability, Capan-1; type: cell-based, human; details: Homo sapiens, CAPAN-1, 120 h, read-out: Capan-1 Cell Viability IC50
How it was run: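 Compounds dispensed directly onto seeded cells; on day 5 plates equilibrated ~30 min to room temperature and luminescence read. Signal normalized to DMSO average (%) and fitted by four-parameter logistic.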

[2] = target: K-Ras G12C(GMP-PNP) binding to BRAF RBD (Homo sapiens (Human), UniProt P01116+P62937, G12C); experiment: Disruption of BRAF RBD interaction with K-Ras (FRET / MOA assay), K-Ras G12C; type: biochemical
K-Ras G12C(GMP-PNP) binding to BRAF RBD, sequence (P01116 other isoform, or with tags, fused parts or gaps G12C): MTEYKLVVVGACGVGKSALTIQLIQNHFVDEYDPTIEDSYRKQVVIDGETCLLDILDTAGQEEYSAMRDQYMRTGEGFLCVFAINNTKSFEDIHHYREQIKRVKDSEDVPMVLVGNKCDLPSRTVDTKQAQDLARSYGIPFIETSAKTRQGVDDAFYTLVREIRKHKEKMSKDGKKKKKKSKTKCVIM
K-Ras G12C(GMP-PNP) binding to BRAF RBD, sequence (P62937 whole entry): as the sequence (P62937 whole entry) above
How it was run: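 Cpd 10-pt 3-fold dilution, top 30 μM final; Ras/CypA/BRAF RBD mix 3 h, 25° C. Add anti-His Eu-W1024 10 nM + anti-GST APC 50 nM final, 1.5 h. Readout TR-FRET ratio decrease vs DMSO → IC50.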

[3] = 5-day treatment, read-out: H358 Cell Viability assay data (K-Ras G12C, IC50)

Row | Structure (SMILES) | IC50 (NRAS G12C) [nM] | IC50 (KRAS G12V) | IC50 (KRAS WT) [nM] | IC50 (KRAS G12S) [nM] | IC50 (KRAS G13D) | IC50 (KRAS G12C) [nM] | IC50 (KRAS G13C) [nM] | IC50 (KRAS G12D) [nM] | IC50 (NCI-H358 (K-Ras G12C); read-out: H358 Cell Viability assay data (K-Ras G12C, IC50, uM), 5-day treatment) [µM] | IC50 [1] [nM] | IC50 ([2]; read-out: KRAS G12C FRET IC50) [nM] | IC50 (NCI-H358 (K-Ras G12C); [3]) [µM] | IC50 ([1]; K-Ras G12V, 5-day treatment) [nM] | IC50 ([2]; KRAS G12C FRET IC50) [nM]
1 | CCn1c(-c2cccnc2[C@H](C)OC)c2c3cc(ccc31)-c1csc(n1)C[C@H](NC(=O)[C@H](C(C)C)N(C)C(=O)[C@H]1CCN(S(C)(=O)=O)C1)C(=O)N1CCC[C@H](N1)C(=O)OCC(C)(C)C2 [Compound A237] | 1000 to 10000 | 1000 to 10000 nM | 1000 to 10000 | 1000 to 10000 | > 10000 nM | 1000 to 10000 | 1000 to 10000 | > 10000 | < 0.01 | 1000 to 10000 | 10 to 100 |  |  | 
2 | CCn1c(-c2cccnc2[C@H](C)OC)c2c3cc(ccc31)-c1cccc(c1)C[C@H](NC(=O)[C@H](C(C)C)N(C)C(=O)C1COC1)C(=O)N1CCC[C@H](N1)C(=O)OCC(C)(C)C2 [Compound A246] | 1000 to 10000 | 1000 to 10000 nM | 1000 to 10000 | 1000 to 10000 | 1000 to 10000 nM | 1000 to 10000 | 1000 to 10000 | > 10000 |  |  | < 10 | < 0.01 | 1000 to 10000 | 
3 | CCn1c(-c2cccnc2[C@H](C)OC)c2c3cc(ccc31)-c1cc(O)cc(c1)C[C@H](NC(=O)[C@H](C(C)C)N(C)C(=O)C1CC(=O)N(C3CC3)C1)C(=O)N1CCC[C@H](N1)C(=O)OCC(C)(C)C2 (stereo partly drawn) [Compound A252] | 10 to 100 | 100 to 1000 nM and 10 to 100 nM | 10 to 100 | 10 to 100 | 100 to 1000 nM and 10 to 100 nM | 10 to 100 | 10 to 100 | 100 to 1000 |  |  | 10 to 100 | 0.01 to 0.1 | 100 to 1000 | 
4 | CCn1c(-c2cnccc2COC)c2c3cc(ccc31)-c1cc(O)cc(c1)C[C@H](NC(=O)[C@H](C(C)C)N(C)C(=O)N1CCNCC1)C(=O)N1CCC[C@H](N1)C(=O)OCC(C)(C)C2 [Compound A255] | 100 to 1000 | 100 to 1000 nM | 100 to 1000 | 100 to 1000 | 10 to 100 nM | 10 to 100 | 10 to 100 | 100 to 1000 |  |  | < 10 | < 0.01 | > 10000 | 
5 | CCn1c(-c2cccnc2[C@H](C)OC)c2c3cc(ccc31)-c1csc(n1)C[C@H](NC(=O)[C@H](C(C)C)N(C)C(=O)N1C[C@H](C)N(C)C[C@H]1C)C(=O)N1CCC[C@H](N1)C(=O)OCC(C)(C)C2 [Compound A300] | 1000 to 10000 | 1000 to 10000 nM | 1000 to 10000 | 1000 to 10000 | 1000 to 10000 nM | 1000 to 10000 | 1000 to 10000 | 1000 to 10000 |  |  | < 10 |  | 1000 to 10000 | 
6 | CCn1c(-c2cccnc2[C@H](C)OC)c2c3cc(ccc31)-c1cc(O)cc(c1)C[C@H](NC(=O)[C@H](C(C)C)N(C)C(=O)[C@H]1OCC[C@H]1c1ccccc1)C(=O)N1CCC[C@H](N1)C(=O)OCC(C)(C)C2 [Compound A425] | 1000 to 10000 | 100 to 1000 nM | 1000 to 10000 | 1000 to 10000 | 1000 to 10000 nM | 100 to 1000 | 100 to 1000 | 1000 to 10000 |  |  | < 10 | < 0.01 |  | 
7 | CCn1c(-c2cccnc2[C@H](C)OC)c2c3cc(ccc31)-c1cc(O)cc(c1)C[C@H](NC(=O)[C@H](C(C)C)N(C)C(=O)C1CNCCNC1)C(=O)N1CCC[C@H](N1)C(=O)OCC(C)(C)C2 [Compound A432] | 10 to 100 | 1000 to 10000 nM | 100 to 1000 | 100 to 1000 | 10 to 100 nM | 10 to 100 | 10 to 100 | 100 to 1000 |  |  | 10 to 100 | 0.01 to 0.1 |  | 
8 | CCn1c(-c2cc(N3CCN(C)CC3)cnc2[C@H](C)OC)c2c3cc(ccc31)-c1csc(n1)C[C@H](NC(=O)[C@H](C(C)C)N(C)C(=O)N1CC(OC)C1)C(=O)N1CCC[C@H](N1)C(=O)OCC(C)(C)C2 [Compound A466] | 10 to 100 | 100 to 1000 nM | 100 to 1000 | 100 to 1000 | 100 to 1000 nM | 10 to 100 | 100 to 1000 | 100 to 1000 |  |  |  | < 0.01 |  | 10 to 100
